Laboratory results published in patent US20220380402A1, “6-HYDRAZINOADENOSINE COMPOUNDS WITH A2A ADENOSINE RECEPTOR AGONIST ACTIVITY” (ACADEMY OF MILITARY MEDICAL SCIENCES, priority 2019, published 2022).

Assays:
A2A adenosine receptor = target: T1, A2A adenosine receptor (Homo sapiens, UniProt P29274); test: Radioligand binding test ([3H]CGS21680 displacement, hA2A HEK-293 cell membrane); details: calculated from IC50 by Cheng and Prusoff equation; [3H]CGS21680 25 nM, Km 22 nM; 25° C., 90 minutes
T1 construct: purchased PerkinElmer Research Products (Boston, Mass.); host or cells: HEK-293 cells, stably transfected; membrane preparation
T1 sequence (P29274 whole entry): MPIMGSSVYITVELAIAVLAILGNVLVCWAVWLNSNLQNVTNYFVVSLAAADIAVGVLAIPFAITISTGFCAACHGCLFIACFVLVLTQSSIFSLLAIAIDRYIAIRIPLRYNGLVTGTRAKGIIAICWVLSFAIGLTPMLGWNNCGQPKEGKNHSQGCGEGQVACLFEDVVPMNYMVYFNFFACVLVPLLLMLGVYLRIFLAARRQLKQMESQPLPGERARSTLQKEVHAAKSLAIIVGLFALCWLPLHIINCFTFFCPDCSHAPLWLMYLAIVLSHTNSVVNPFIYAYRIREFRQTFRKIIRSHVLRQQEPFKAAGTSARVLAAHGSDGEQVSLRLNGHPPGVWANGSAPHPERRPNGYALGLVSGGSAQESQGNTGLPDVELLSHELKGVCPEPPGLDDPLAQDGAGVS
Protocol: [3H]CGS21680 (2-[p-(2-carboxyethyl)phenylethylamino]-5′-N-ethylformamidoadenosine, [carboxy-1-ethyl-3H(N)]; 250 μCi) was purchased from PerkinElmer Research Products (Boston, Mass.).
Cell membrane stably transfected with (human) A2A adenosine receptor was prepared in HEK-293 cells. The cell membrane was obtained from PerkinElmer Research Products (Boston, Mass.).
CGS21680 (2-[p-(2-carboxyethyl)phenylethylamino]-5′-N-ethylformamidoadenosine) was purchased from Selleck (Shanghai, CN).
The A2A adenosine receptors used were all expressed in the cell membrane. […] The specific binding percentage of [3H]CGS21680 was calculated according to the CPM value, % specific binding of [3H]CGS21680=(CPMsample−CPMLow Control)/(CPMHigh Control−CPMLow Control)*100, in which
High Control was 0.5% DMSO, Low Control was 100 μM CGS21680. The IC50 value was calculated based on the compound concentration and the specific binding percentage of [3H]CGS21680 by curve fitting.
The inhibition constant (Ki) value was calculated from the IC50 value according to the Cheng and Prusoff equation, Ki=IC50/(1+[S]/Km), in which [S] was the concentration of the radioligand (25 nM), and Km was the human A2AAR dissociation constant (22 nM) of [3H]CGS21680. The inhibition constant Ki values for Compounds 1 to 20 of the present invention binding to A2A adenosine receptor were shown in Table 1.

[1] = target: human adenosine receptor A2A (Homo sapiens, UniProt P29274); test: Adenosine receptor A2A cAMP test (LANCE Ultra cAMP, hADORA2A-HEK293 cells); assay type: cell-based
human adenosine receptor A2A, sequence (P29274 whole entry): as above
From the text: Experimental reagents and consumables: DMEM/F12, G418, Penicillin-Streptomycin, Versene Solution, HEPES, Hank's Buffered Saline Solution, PBS (pH 7.4, 1×, sterile), FBS, BSA Stabilizer 7.5%, Rolipram, NECA, were purchased from Gibico, Hyclone and Sigma, respectively. LANCE® Ultra cAMP kit (Eu-cAMP tracer, Ulight-anti-cAMP reagent, cAMP detection buffer) and hADORA2A-HEK293 cells were purchased from PerkinElmer Research Products (Boston, Mass.). All other reagents were of analytical grade and obtained from commercial sources. 384-well polypropylene microplate and 384-well white solid plate were purchased from Labcyte and Corning, respectively.
Cells stably expressing human adenosine receptor A2A (hADORA2A-HEK293 cells) were cultured in DMEM/F12 medium containing 10% FBS, 1× Penicillin-Streptomycin and 400 μg/ml G418 in a 37° C., 5% CO2 environment. Before the experiment, the cells were digested with Versene solution, and the cells were collected by centrifugation at 200 g at room temperature for 5 minutes, and finally resuspended with detection buffer (Hank's buffered saline solution, containing 5 mM HEPES, 0.1% BSA stabilizer and 10 μM Rolipram, pH 7.4). TECAN automated pipetting workstation was used to prepare a compound source plate by 3-fold diluting the compound in a 384-well polypropylene microplate with DMSO to form 11 concentration points, in which the 11 concentration points of the compound were 10 mM, 3.33 mM, 1.11 mM, 0.37 mM, 0.12 mM, 0.041 mM, 0.013 mM, 4.57×10^−3 mM, 1.52×10^−3 mM, 5×10^−4 mM and 1.7×10^−4 mM, respectively. Echo ultrasonic pipetting system (Labcyte) was used to transfer the test compound from the compound source plate to the detection plate, in which the volume of the compound transferred was 10 nl/well. The hADORA2A-HEK293 cell suspension was diluted with detection buffer to 30,000 cells/ml, and the cell suspension was transferred to the detection plate at a volume of 10 μl/well (300 cells/well). The detection plate was centrifuged at 150 g for 1 minute and pre-incubated at room temperature for 30 minutes. […] EnVison microplate reader (EnVision multimode plate reader, PerkinElmer) was used to test the level of cyclic adenosine monophosphate in the final solution (λex=320 nm, λem=665 nm & 615 nm). The EC50 (nM) value of the compound interacting with A2A adenosine receptor to stimulate the production of a level of cyclic adenosine monophosphate was calculated. The compound A2A receptor agonist titer was expressed as the EC50 (nM) value of the compound interacting with the A2A adenosine receptor to stimulate the production of a level of cyclic adenosine monophosphate.

| Structure (SMILES) | Ki (A2A adenosine receptor) [nM] | melting point [°C] | hA2AAR agonist function (in words) ([1]; conclusion from cAMP test) | EC50 ([1]; hADORA2A-HEK293 cells, 300 cells/well, stimulation of cyclic adenosine monophosphate) [nM] |
| --- | --- | --- | --- | --- |
| OC[C@H]1O[C@@H](n2cnc3c(N/N=C/c4ccc[nH]4)ncnc32)[C@H](O)[C@@H]1O [Compound 1, (2R,3R,4S,5R)-2-{6-{2-[(E)-(1H-pyrrol-2-yl)methylene]hydrazino}-9H-purin-9-yl}-5-(hydroxymethyl)tetrahydrofuran-3,4-diol] | 945 | 160 | – | – |
| CSCC/C=N/Nc1ncnc2c1ncn2[C@@H]1O[C@H](CO)C(O)C1O (stereo partly drawn) [Compound 2, (2R,3S,4R,5R)-2-(hydroxymethyl)-5-{6-{2-[(E)-3-(methylthio)propylene]hydrazino}-9H-purin-9-yl}tetrahydrofuran-3,4-diol] | 2150 | 94 | – | – |
| OC[C@H]1O[C@@H](n2cnc3c(N/N=C/c4ccc(OCc5ccccc5)c(OCc5ccccc5)c4)ncnc32)C(O)C1O (stereo partly shown) [Compound 4] | > 10000 | 186 | – | – |
| OC[C@H]1O[C@@H](n2cnc3c(N/N=C/c4cccc(OCc5ccccc5)c4)ncnc32)[C@H](O)[C@@H]1O [Compound 8, (2R,3R,4S,5R)-2-{6-{2-[(E)-3-(benzyloxy)benzylidene]hydrazino}-9H-purin-9-yl}-5-(hydroxymethyl)tetrahydrofuran-3,4-diol] | 236 | 140 | – | – |
| OC[C@H]1O[C@@H](n2cnc3c(N/N=C/c4ccc(-c5ccccn5)cc4)ncnc32)[C@H](O)[C@@H]1O [Compound 9, (2R,3S,4R,5R)-2-(hydroxymethyl)-5-{6-{2-[(E)-4-(pyridin-2-yl)benzylidene]hydrazino}-9H-purin-9-yl}tetrahydrofuran-3,4-diol] | 4590 | 236 | – | – |
| OC[C@H]1O[C@@H](n2cnc3c(N/N=C/c4ccc(-c5ccccc5)cc4)ncnc32)C(O)C1O (stereo partly shown) [Compound 10] | 1900 | 170 | – | – |
| CCCOc1ccc(/C=N/Nc2ncnc3c2ncn3[C@@H]2O[C@H](CO)[C@@H](O)[C@H]2O)cc1 [Compound 13, (2R,3S,4R,5R)-2-(hydroxymethyl)-5-{6-{2-[(E)-4-propoxybenzylidene]hydrazino}-9H-purin-9-yl}tetrahydrofuran-3,4-diol] | 4470 | 202 | – | – |
| OC[C@H]1O[C@@H](n2cnc3c(N/N=C/c4ccc(C(F)(F)F)cc4)ncnc32)[C@H](O)[C@@H]1O [Compound 14, (2R,3S,4R,5R)-2-(hydroxymethyl)-5-{6-{2-[(E)-4-(trifluoromethyl)benzylidene]hydrazino}-9H-purin-9-yl}tetrahydrofuran-3,4-diol] | 520 | 182 | – | – |
| OC[C@H]1O[C@@H](n2cnc3c(N/N=C/c4ccc(Cl)c(C(F)(F)F)c4)ncnc32)C(O)C1O (stereo partly shown) [Compound 18] | 1470 | 196 | – | – |
| OC[C@H]1O[C@@H](n2cnc3c(N/N=C/c4ccc(N(c5ccccc5)c5ccccc5)cc4)ncnc32)C(O)C1O (stereo partly shown) [Compound 19] | 5580 | 160 | – | – |
| CCCCc1nc(/C=N/Nc2ncnc3c2ncn3[C@@H]2O[C@H](CO)[C@@H](O)[C@H]2O)c(Cl)[nH]1 [Compound 20, (2R,3R,4S,5R)-2-{6-{2-[(E)-(2-butyl-5-chloro-1H-imidazol-4-yl)methylene]hydrazino}-9H-purin-9-yl}-5-(hydroxymethyl)tetrahydrofuran-3,4-diol] | 998 | 178 | – | – |
| OC[C@H]1O[C@@H](n2cnc3c(N/N=C/C4CCCCC4)ncnc32)[C@H](O)[C@@H]1O [Compound 22, (2R,3R,4S,5R)-2-{6-{2-[(E)-cyclohexylmethylene]hydrazino}-9H-purin-9-yl}-5-(hydroxylmethyl)tetrahydrofuran-3,4diol] | 86.6 | 132 | – | – |

The next molecules have a lower Ki (A2A adenosine receptor) than those just listed; values first:

| Ki (A2A adenosine receptor) [nM] | melting point [°C] | hA2AAR agonist function (in words) ([1]; conclusion from cAMP test) | EC50 ([1]; hADORA2A-HEK293 cells, 300 cells/well, stimulation of cyclic adenosine monophosphate) [nM] | Structure (SMILES) |
| --- | --- | --- | --- | --- |
| 15.8 | 224 | hA2AAR agonists | 43.5 | OC[C@H]1O[C@@H](n2cnc3c(N/N=C/c4cncs4)ncnc32)[C@H](O)[C@@H]1O [Compound 16, (2R,3S,4R,5R)-2-(hydroxymethyl)-5-{6-{2-[(E)-thiazol-5-yl-methylene]hydrazino}-9H-purin-9-yl}tetrahydrofuran-3,4-diol] |
| 15.4 | 222 | – | – | OC[C@H]1O[C@@H](n2cnc3c(N/N=C/c4ccc(-n5ccnc5)cc4)ncnc32)[C@H](O)[C@@H]1O [Compound 12, (2R,3R,4S,5R)-2-{6-{2-[(E)-4-(1H-imidazol-1-yl)benzylidene]hydrazino}-9H-purin-9-yl}-5(hydroxymethyl)tetrahydrofuran-3,4-diol] |
| 3.6 | 170 | – | – | CC(=O)Nc1ccc(/C=N/Nc2ncnc3c2ncn3[C@@H]2O[C@H](CO)C(O)C2O)cc1 (stereo partly drawn) [Compound 3, N-{4-{(E)-{2-{9-[(2R,3R,4S,5R)-3,4-dihydroxy-5-(hydroxymethyl)tetrahydrofuran-2-yl]-9H-purin-6-yl}hydrazino}methyl}phenyl}acetamide] |
| 2 | 202 | – | – | OC[C@H]1O[C@@H](n2cnc3c(N/N=C/c4ccc(N5CCCC5)cc4)ncnc32)[C@H](O)[C@@H]1O [Compound 11, (2R,3S,4R,5R)-2-(hydroxymethyl)-5-{6-{2-[(E)-4-(pyrrolidin-1-yl)benzylidene]hydrazino}-9H-purin-9-yl}tetrahydrofuran-3,4-diol] |
| 1.4 | 172 | – | – | CN(C)c1ccc(/C=C/C=N/Nc2ncnc3c2ncn3[C@@H]2O[C@H](CO)[C@@H](O)[C@H]2O)cc1 [Compound 17, (2R,3R,4S,5R)-2-{6-{2-{(1E,2E)-3-[4-(dimethylamino)phenyl]allylidene}hydrazino}-9H-purin-9-yl}-5-(hydroxymethyl)tetrahydrofuran-3,4-diol] |
| 1.2 | 200 | – | – | OC[C@H]1O[C@@H](n2cnc3c(N/N=C/c4ccc(C(F)(F)F)cc4C(F)(F)F)ncnc32)[C@H](O)[C@@H]1O [Compound 6, (2R,3R,4S,5R)-2-{6-{2-[(E)-2,4-bis(trifluoromethyl)benzylidene]hydrazino}-9H-purin-9-yl}-5-(hydroxymethyl)tetrahydrofuran-3,4-diol] |
| 1.2 | 178 | – | – | CCCCC/C=C/C=C/C=N/Nc1ncnc2c1ncn2[C@@H]1O[C@H](CO)[C@@H](O)[C@H]1O [Compound 21, (2R,3R,4S,5R)-2-{6-{2-[(1E,2E,4E)-deca-2,4-dien-1-ylidene]hydrazino}-9H-purin-9-yl}-5(hydroxymethyl)tetrahydrofuran-3,4-diol] |
